Type in all cases: functional
The subject of assay [1] is Staphylococcus aureus. The experiment in a line: Antibacterial activity against methicillin-resistant Staphylococcus aureus after 20 to 24 hrs.
Assay [2] deals with Enterococcus. Briefly: Antibacterial activity against vancomycin-resistant Enterococcus after 20 to 24 hrs.
The subject of assay [3] is Escherichia coli. The experiment in a line: Antibacterial activity against Escherichia coli ATCC 25922 after 20 to 24 hrs.
Assay [4] has as its system Pseudomonas aeruginosa. The experiment in a line: Antibacterial activity against Pseudomonas aeruginosa ATCC 27853 after 20 to 24 hrs.
The subject of assay [5] is Escherichia coli. Briefly: Antibacterial activity against Escherichia coli ATCC 25922 after 20 to 24 hrs in presence of polymyxin B nonapeptide.
The test system of assay [6] is Pseudomonas aeruginosa. Briefly: Antibacterial activity against Pseudomonas aeruginosa ATCC 27853 after 20 to 24 hrs in presence of polymyxin B nonapeptide.

From ChEMBL document CHEMBL3779887, “Robenidine Analogues as Gram-Positive Antibacterial Agents” (J Med Chem, 2016) come the findings set out here.

SMILES strings stand for the structures. Converted amounts (≈) assume the structure as drawn.

A word on the MIC: it is the lowest concentration found to suppress growth. Higher therefore signals a less susceptible organism. Turning to `N=C(N/N=C/c1ccc(O)c([N+](=O)[O-])c1)N/N=C/c1ccc(O)c([N+](=O)[O-])c1`, the MIC in assay [1], in assay [2], in assay [3] and in assay [4] was more than 400 µM throughout.

`N=C(N/N=C/c1ccc(F)cc1)N/N=C/c1ccc(F)cc1`: the MIC in assay [1] was 47 µM (≈ 14.2 µg/mL); in assay [2] it was 23.7 µM (≈ 7.14 µg/mL); in assay [3], more than 400 µM; in assay [4] it was more than 400 µM.

As to `N=C(N/N=C/c1cc(Cl)cc(Cl)c1)N/N=C/c1cc(Cl)cc(Cl)c1`, the minimum inhibitory concentration (MIC) in assay [1], in assay [2], in assay [3] and in assay [4] was more than 400 µM throughout.

With `CSc1ccc(/C=N/NC(=N)N/N=C/c2ccc(SC)cc2)cc1`, the minimum inhibitory concentration (MIC) in assay [1] was 61 µM (≈ 21.8 µg/mL); in assay [2], 12.7 µM (≈ 4.54 µg/mL); in assay [3] it was more than 400 µM; in assay [4], more than 400 µM.

Take `N=C(N/N=C/c1ccc(SC(F)(F)F)cc1)N/N=C/c1ccc(SC(F)(F)F)cc1`: the MIC in assay [1] is 96 µM (≈ 44.7 µg/mL); in assay [2] it was 135 µM (≈ 62.8 µg/mL); in assay [3], more than 400 µM; in assay [4] it was more than 400 µM.

Turning to `N=C(N/N=C/c1ccc(C(F)(F)F)cc1)N/N=C/c1ccc(C(F)(F)F)cc1`, the MIC in assay [1] is 36.5 µM (≈ 14.6 µg/mL); in assay [2] it was 11.4 µM (≈ 4.57 µg/mL); in assay [3], more than 400 µM; in assay [4] it was more than 400 µM.

With `N=C(N/N=C/c1ccccc1)N/N=C/c1ccccc1`, the MIC in assay [1], in assay [2], in assay [3] and in assay [4] was more than 400 µM in each case.

Take `CCCCc1ccc(/C=N/NC(=N)N/N=C/c2ccc(CCCC)cc2)cc1`: the MIC is 232 µM (≈ 87.6 µg/mL) in assay [1], 193 µM (≈ 72.9 µg/mL) in assay [2], more than 400 µM in assay [3] and more than 400 µM in assay [4].

`N=C(N/N=C/c1cccc(O)c1)N/N=C/c1cccc(O)c1`: the minimum inhibitory concentration (MIC) is 192 µM (≈ 57.1 µg/mL) in assay [1], 288 µM (≈ 85.6 µg/mL) in assay [2], more than 400 µM in assay [3] and more than 400 µM in assay [4].

As for `CCCc1ccc(/C=N/NC(=N)N/N=C/c2ccc(CCC)cc2)cc1`, the minimum inhibitory concentration (MIC) is 83 µM (≈ 29 µg/mL) in assay [1], 73 µM (≈ 25.5 µg/mL) in assay [2], more than 400 µM in assay [3] and more than 400 µM in assay [4].

In the case of `CC(O)Nc1cc(Cl)ccc1/C=N/NC(=N)N/N=C/c1ccc(Cl)cc1NC(C)O` (stereo not drawn), the minimal inhibitory concentration (MIC) was 66 µM (≈ 29.9 µg/mL) in assay [1], 98 µM (≈ 44.3 µg/mL) in assay [2], more than 400 µM in assay [3] and more than 400 µM in assay [4].

For the compound `N=C(N/N=C/c1ccc(O)cc1)N/N=C/c1ccc(O)cc1`, the minimum inhibitory concentration (MIC) in assay [1] was 192 µM (≈ 57.1 µg/mL); in assay [2], 288 µM (≈ 85.6 µg/mL); in assay [3], more than 400 µM; in assay [4], more than 400 µM.

As for `CN(C)c1ccc(/C=N/NC(=N)N/N=C/c2ccc(N(C)C)cc2)cc1`, the minimal inhibitory concentration (MIC) is 30.9 µM (≈ 10.9 µg/mL) in assay [1], 30.9 µM (≈ 10.9 µg/mL) in assay [2], more than 400 µM in assay [3] and more than 400 µM in assay [4].

`N=C(N/N=C/c1cc(O)c(O)c(O)c1)N/N=C/c1cc(O)c(O)c(O)c1`: the MIC in assay [1] is 161 µM (≈ 58.2 µg/mL); in assay [2] it was more than 400 µM; in assay [3], more than 400 µM; in assay [4], 322 µM (≈ 116 µg/mL).

Take `N=C(N/N=C/c1cc(F)ccc1F)N/N=C/c1cc(F)ccc1F`: the minimal inhibitory concentration (MIC) in assay [1], in assay [2], in assay [3] and in assay [4] was more than 400 µM each time.

As to `N=C(N/N=C/c1ccc(O)c(O)c1O)N/N=C/c1ccc(O)c(O)c1O`, the minimum inhibitory concentration (MIC) is 161 µM (≈ 58.2 µg/mL) in assay [1], 161 µM (≈ 58.2 µg/mL) in assay [2], more than 400 µM in assay [3] and more than 400 µM in assay [4].

Regarding `N=C(N/N=C/c1ccc(F)c(F)c1)N/N=C/c1ccc(F)c(F)c1`, the minimum inhibitory concentration (MIC) in assay [1] is 40.1 µM (≈ 13.5 µg/mL); in assay [2], 10.7 µM (≈ 3.61 µg/mL); in assay [3], more than 400 µM; in assay [4], more than 400 µM.

Regarding `COc1ccc(/C=N/NC(=N)N/N=C/c2ccc(OC)c(O)c2)cc1O`, the minimum inhibitory concentration (MIC) in assay [1], in assay [2], in assay [3] and in assay [4] was more than 400 µM each time.

For `N=C(N/N=C/c1cccc(O)c1O)N/N=C/c1cccc(O)c1O`, the minimum inhibitory concentration (MIC) in assay [1] is 88 µM (≈ 29 µg/mL); in assay [2], 262 µM (≈ 86.3 µg/mL); in assay [3], more than 400 µM; in assay [4] it was more than 400 µM.

For the compound `N=C(N/N=C/c1ccccc1F)N/N=C/c1ccccc1F`, the minimal inhibitory concentration (MIC) in assay [1], in assay [2], in assay [3] and in assay [4] was more than 400 µM each time.

Consider `COc1ccc(/C=N/NC(=N)N/N=C/c2ccc(OC)c(OC)c2)cc1OC`, for which the minimal inhibitory concentration (MIC) in assay [1], in assay [2], in assay [3] and in assay [4] was more than 400 µM each time.

Regarding `N=C(N/N=C/c1ccc(Cl)cc1N)N/N=C/c1ccc(Cl)cc1N`, the minimal inhibitory concentration (MIC) was 5 µM (≈ 1.82 µg/mL) in assay [1], 6.3 µM (≈ 2.29 µg/mL) in assay [2], more than 400 µM in assay [3] and more than 400 µM in assay [4].

For the compound `COc1ccccc1/C=N/NC(=N)N/N=C/c1ccccc1OC`, the minimal inhibitory concentration (MIC) in assay [1] is more than 400 µM; in assay [2], 358 µM (≈ 116 µg/mL); in assay [3] it was more than 400 µM; in assay [4], more than 400 µM.

For `N=C(N/N=C/c1ccccc1O)N/N=C/c1ccccc1O`, the MIC in assay [1] is 36 µM (≈ 10.7 µg/mL); in assay [2], 240 µM (≈ 71.4 µg/mL); in assay [3] it was more than 400 µM; in assay [4] it was more than 400 µM.

Consider `CC(C)c1ccc(/C=N/NC(=N)N/N=C/c2ccc(C(C)C)cc2)cc1`, for which the minimum inhibitory concentration (MIC) in assay [1] is 9.1 µM (≈ 3.18 µg/mL); in assay [2], 13 µM (≈ 4.54 µg/mL); in assay [3], more than 400 µM; in assay [4], more than 400 µM.

In the case of `N=C(N/N=C/c1ccc(Cl)cc1F)N/N=C/c1ccc(Cl)cc1F`, the MIC in assay [1] was 6.1 µM (≈ 2.26 µg/mL); in assay [2] it was 7.4 µM (≈ 2.74 µg/mL); in assay [3] it was more than 400 µM; in assay [4] it was more than 400 µM.

Take `CC(=O)Nc1cc(Cl)ccc1/C=N/NC(=N)N/N=C/c1ccc(Cl)cc1NC(C)=O`: the minimal inhibitory concentration (MIC) in assay [1], in assay [2], in assay [3] and in assay [4] was more than 400 µM throughout.

As to `COc1cc(/C=N/NC(=N)N/N=C/c2cc(Br)c(OC)c(OC)c2)cc(Br)c1OC`, the MIC in assay [1], in assay [2], in assay [3] and in assay [4] was more than 400 µM throughout.

For `N=C(N/N=C/c1ccccc1Cl)N/N=C/c1ccccc1Cl`, the minimal inhibitory concentration (MIC) in assay [1], in assay [2], in assay [3] and in assay [4] was more than 400 µM in each case.

For the compound `N=C(N/N=C/c1c(Cl)cccc1Cl)N/N=C/c1c(Cl)cccc1Cl`, the minimum inhibitory concentration (MIC) in assay [1], in assay [2], in assay [3] and in assay [4] was more than 400 µM throughout.

For the compound `Cc1cccc(/C=N/NC(=N)N/N=C/c2cccc(C)c2)c1`, the minimal inhibitory concentration (MIC) is 24.4 µM (≈ 7.16 µg/mL) in assay [1], 24.4 µM (≈ 7.16 µg/mL) in assay [2], more than 400 µM in assay [3] and more than 400 µM in assay [4].

As to `N=C(N/N=C/c1ccc(/C=C/C(=O)O)cc1)N/N=C/c1ccc(/C=C/C(=O)O)cc1`, the minimum inhibitory concentration (MIC) in assay [1], in assay [2], in assay [3] and in assay [4] was more than 400 µM throughout.

As for `COc1cc(/C=N/NC(=N)N/N=C/c2cc(O)c(O)c(OC)c2)cc(O)c1O`, the MIC in assay [1], in assay [2], in assay [3] and in assay [4] was more than 400 µM in each case.

Turning to `N=C(N/N=C/c1cc(O)c(O)cc1O)N/N=C/c1cc(O)c(O)cc1O`, the minimum inhibitory concentration (MIC) in assay [1] was 161 µM (≈ 58.2 µg/mL); in assay [2], 322 µM (≈ 116 µg/mL); in assay [3] it was more than 400 µM; in assay [4] it was more than 400 µM.

Regarding `N=C(N/N=C/c1cccc(C(=O)O)c1)N/N=C/c1cccc(C(=O)O)c1`, the MIC in assay [1], in assay [2], in assay [3] and in assay [4] was more than 400 µM each time.

Take `COc1cccc(/C=N/NC(=N)N/N=C/c2cccc(OC)c2)c1`: the MIC is 88 µM (≈ 28.6 µg/mL) in assay [1], 88 µM (≈ 28.6 µg/mL) in assay [2], more than 400 µM in assay [3] and more than 400 µM in assay [4].

For orientation: MIC90 means an inhibitory concentration at the 90% level, which refers to growth in some studies and to a panel of isolates in others. With `CC(C)/N=c1\cc2n(-c3ccc(Cl)cc3)c3ccccc3nc-2cc1Nc1ccc(Cl)cc1` [CLOFAZIMINE], the MIC90 in assay [3] was more than 250 µM; in assay [4], more than 250 µM; in assay [5], 4.2 µM; in assay [6] it was 8.4 µM.

For the compound `N=C(N/N=C/c1ccc(OC(F)(F)F)cc1)N/N=C/c1ccc(OC(F)(F)F)cc1`, the minimum inhibitory concentration (MIC) in assay [1] was 187 µM (≈ 81 µg/mL); in assay [2] it was 85 µM (≈ 36.8 µg/mL); in assay [3], more than 400 µM; in assay [4], more than 400 µM.

For the compound `N=C(N/N=C/c1ccccc1Br)N/N=C/c1ccccc1Br`, the minimum inhibitory concentration (MIC) in assay [1], in assay [2], in assay [3] and in assay [4] was more than 400 µM in each case.

As for `Cc1cccc(/C=N/NC(=N)N/N=C/c2cccc(C)c2O)c1O`, the MIC in assay [1], in assay [2], in assay [3] and in assay [4] was more than 400 µM each time.

Turning to `Cc1ccc(/C=N/NC(=N)N/N=C/c2ccc(C)cc2)cc1`, the minimum inhibitory concentration (MIC) in assay [1] is 9.1 µM (≈ 2.67 µg/mL); in assay [2], 12.1 µM (≈ 3.55 µg/mL); in assay [3] it was more than 400 µM; in assay [4], more than 400 µM.

Consider `CN(C)c1ccc(/C=N/NC(=N)N/N=C/c2ccc(N(C)C)cc2O)c(O)c1`, for which the minimum inhibitory concentration (MIC) in assay [1] is 229 µM (≈ 87.8 µg/mL); in assay [2], 76 µM (≈ 29.1 µg/mL); in assay [3] it was more than 400 µM; in assay [4] it was more than 400 µM.
